Counter-ions that a name gives are not always drawn.
Biological target: recombinant human arginases 1 and 2
Assay: Human Arginase Activity Assay (urea measurement, colorimetric)
Assay type: biochemical
Conditions: 37° C., 60 min, isoform not given, read-out: Activity Class (IC50)
Procedure: Human Arginase Activity Assay
The assay was run in the 96-well plate format, each reaction in the total volume of 100 ul. The assay is based on urea measurement, which is a product of L-arginine enzymatic degradation. (Baggio et al. J. Pharmacol. Exp. Ther. 1999, 290, 1409-1416). The color product is developed by adding a mixture of reagent A (10 mM o-phthaldialdehyde and 0.4% polyoxyethylene (23) lauryl ether (w/v) in 1.8 M sulfuric acid) and reagent B (1.3 mM primaquine diphosphate, 0.4% polyoxyethylene (23) lauryl ether (w/v), and 130 mM boric acid in 3.6 M sulfuric acid) in equal proportions. The absorbance for each well was measured at 530 nm and was referred to the concentration curve determined using urea as a standard.
Briefly, to each well of a 96-well microtiter plate 40 μL of enzyme, 50 μL of the test compound solution, and 10 μL of enzyme substrate solution (L-arginine+manganese chloride) was added. For positive control, only the enzyme and substrate was added, the negative controls contained only manganese chloride. After incubating the microtiter plate at 37° C. for 60 min, 150 μL of a urea reagent was added to each well to stop the reaction. After quenching the reaction mixture, the plate was left for 20 min at room temperature in order to allow color development. Absorbance was measured with Envision® Reader (Perkin-Elmer) (λ=530 nm).
The IC50 values were calculated using GraphPad Prism and divided into the following classes: […]

Row | IC50 | Compound
1 | 100 to 1000 nM | CNC(CCCCB(O)O)(CNS(N)(=O)=O)C(=O)O (stereo not drawn) [Example 8, 6-Borono-2-(methylamino)-2-((sulfamoylamino)methyl)hexanoic acid hydrochloride]
2 | 1 to 100 nM | CNC(CCCCB(O)O)(CNC(=N)N)C(=O)O (stereo not drawn) [Example 9, 6-Borono-2-(guanidinomethyl)-2-(methylamino)hexanoic acid dihydrochloride]
3 | 1000 to 10000 nM | NC(CCCCB(O)O)(CCS(N)(=O)=O)C(=O)O (stereo not drawn) [Example 10, 2-Amino-6-borono-2-(2-sulfamoylethyl)hexanoic acid hydrochloride]
4 | 1000 to 10000 nM | NC(CCCCB(O)O)(CCNS(N)(=O)=O)C(=O)O (stereo not drawn) [Example 12, hydrochloride]
5 | 1000 to 10000 nM | NC(CCCCB(O)O)(C(=O)O)C1CCN(S(N)(=O)=O)CC1 (stereo not drawn) [Example 14, 2-Amino-6-borono-2-(1-sulfamoylpiperidin-4-yl)hexanoic acid hydrochloride]
6 | 10000 to 100000 nM | CN(C)S(=O)(=O)N1CCC(C(N)(CCCCB(O)O)C(=O)O)CC1 (stereo not drawn) [Example 15, 2-Amino-6-borono-2-(1-(N,N-dimethylsulfamoyl)piperidin-4-yl)hexanoic acid hydrochloride]
7 | 1000 to 10000 nM | NC(CCCCB(O)O)(C(=O)O)C1CCN(S(=O)(=O)NCc2ccc(C(F)(F)F)cc2)CC1 (stereo not drawn) [Example 16, 2-Amino-6-borono-2-(1-(N-(4-(trifluoromethyl)benzyl)sulfamoyl)piperidin-4-yl)hexanoic acid hydrochloride]

The remaining lines, values behind:

Row | Compound | IC50
8 | NC(=O)NCC(N)(CCCCB(O)O)C(=O)O (stereo not drawn) [Example 3, 2-Amino-6-borono-2-(ureidomethyl)hexanoic acid hydrochloride] | 10000 to 100000 nM
9 | CN(C)S(=O)(=O)NCC(N)(CCCCB(O)O)C(=O)O (stereo not drawn) [Example 4, 2-Amino-6-borono-2-(((N,N-dimethylsulfamoyl)amino)methyl)hexanoic acid hydrochloride] | 100 to 1000 nM
10 | NC(CCCCB(O)O)(CNS(=O)(=O)NCc1ccccc1)C(=O)O (stereo not drawn) [Example 5, hydrochloride] | 1000 to 10000 nM
11 | CNS(=O)(=O)NCC(N)(CCCCB(O)O)C(=O)O (stereo not drawn) [Example 6, hydrochloride] | 100 to 1000 nM
12 | CNC(=N)NCC(N)(CCCCB(O)O)C(=O)O (stereo not drawn) [Example 7, 2-Amino-6-borono-2-((3-methylguanidino)methyl)hexanoic acid hydrochloride] | 100 to 1000 nM

From US10329310B2, “Arginase inhibitors and their therapeutic applications” (ONCOARENDI THERAPEUTICS S.A., priority 2014, dated 2019)
